According to patent US20030234356A1, “Method and apparatus for the detection of noncovalent interactions by mass spectrometry-based diffusion measurements” (priority 2002, published 2003):
Entries after “also recorded” stand apart in the source; their conditions may differ.

What was measured:
[1] = biological target: T1, apo-myoglobin (Equus caballus, UniProt P68082); test: ESI-MS Taylor dispersion (diffusion) measurement of noncovalent heme-protein binding in myoglobin; conditions: for noncovalent binding of heme to the protein: 24±1° C
T1 construct: purchased Sigma (St. Louis, Mo.)
Procedure: (§1) Based on the theoretical considerations described above, we will now describe details of an apparatus that allows the measurement of dispersion profiles by ESI-MS or APCI-MS. A schematic diagram of the apparatus is shown generally at 10 in FIG. 2. The measurements described below were carried out by using a 3.013 m long Teflon laminar flow tube (Upchurch, Oak Harbor, Wash.) shown as LFT or 12 in FIG. 2. The inner diameter (i.d.) of this LFT was determined gravimetrically to be 258.2 μm. In order to measure a diffusion coefficient, a sharp initial boundary must be created between the carrier solution and the following analyte solution at the entrance of the flow tube (Equation 3). This was accomplished by using a valve mechanism shown in FIG. 2 as a “sliding block mechanism (SBM)” 14 developed by the inventors. The laminar flow tube (LFT) 12 is inserted into a Teflon block machined to accommodate a PEEK connector and ferrule (Upchurch, Oak Harbor, Wash.) so that the flow tube 12 extends through to the end of the block. Initially, the entrance to the flow tube 12 is aligned with an opening in a steel block into which a piece of PEEK tubing 16 (508 μm ID, length ≈0.5 m) is fitted, using another PEEK connector and ferrule. This second piece of tubing 16 is used as the inlet tube, forming a leak-proof connection between the inlet tube and the flow tube at the boundary between the steel and Teflon blocks.
(§2) An analyte reservoir 18 (shown as a syringe in FIG. 2 which also acts as a pump) connected to the inlet tube 16 can be used to fill the inlet tube 16 with analyte solution, and to pump this analyte solution through the LFT 12. Initially, however, a carrier solution reservoir (not shown) is connected to tube 16 for filling the laminar flow tube 12 with carrier solution. The analyte solution and carrier solution reservoirs are never connected to the laminar flow tube 16 at the same time. Subsequently, the Teflon block containing the flow tube is moved sideways, such that the two tubes 12 and 16 are no longer aligned and the entrance to the flow tube 12 is closed off by the steel block. The inlet tube 16 can now be filled with analyte solution from pump 18 (syringe S1) without disturbing the carrier solution in the flow tube 12. Then the Teflon block is returned to its original position, aligning the two tubes (12 and 16) and creating a sharp boundary between the analyte solution in the inlet tube and the carrier solution in the LFT 12. The i.d. of the inlet tube 16 was chosen to be larger than that of the flow tube 12 to ensure that the boundary between the two solutions would cover the entire cross-sectional area of the flow tube 12, even if the sliding block were slightly misaligned. The use of a commercially available HPLC injection valve with a sample loop of suitable size may serve the same purpose as the described sliding block mechanism.
For the four examples given below, the analyte solution from syringe S1 is pumped through the laminar flow tube by using a Harvard syringe pump (South Nattick, Mass.). The outlet of the flow tube 12 is connected to two fused silica capillaries 26 and 28 (i.d. 100 μm, o.d. 165 μm, Polymicro Technologies, Phoenix, Ariz.) at a mixer 30 located at the end of tube 12. The first of these capillaries 26 has a length of 5 cm and is connected to the ESI source of the mass spectrometer 22. For studies on myoglobin, the second capillary 28 was used to supplement the analyte near the end of the laminar flow tube 12 with a methanol/acetic acid (90:10 v/v) mixture from syringe S2 just before it reached the ESI ion source. This “make-up” solvent was delivered at a flow rate of 5 μL/min, for a total flow rate of 10 μL/min at the ion source. The residence time of the analyte solution in the final 5 cm capillary was only about 2 s and can therefore be neglected for the analysis (the value of l/{overscore (v)} is 1929 s). […]

[2] = biological target: T2, lysozyme (Gallus gallus, UniProt P00698); test: ESI-MS Taylor dispersion screen of a mixture of six sugars for noncovalent binding to lysozyme; conditions: six sugars monitored simultaneously
T2 construct: purchased Sigma (St. Louis, Mo.)
Procedure: as §1
as §2, with “The use of a commercially available HPLC injection valve with a sample loop of suitable size may serve the same purpose as the described sliding block mechanism.” left out

[3] = denaturing conditions (50% acetonitrile, pH 10)
[4] = native-like solvent conditions (no organic cosolvents, pH 10)
[5] = semi-denaturing conditions (30% acetonitrile, pH 10)
[6] = absence vs presence of lysozyme

T1 sequence (P68082 2-154 limits assumed): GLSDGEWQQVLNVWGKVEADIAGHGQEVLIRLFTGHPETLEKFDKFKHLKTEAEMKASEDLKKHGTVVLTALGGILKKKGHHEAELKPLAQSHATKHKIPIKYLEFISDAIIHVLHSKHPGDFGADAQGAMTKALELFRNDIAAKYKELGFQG
T2 sequence (P00698 19-147): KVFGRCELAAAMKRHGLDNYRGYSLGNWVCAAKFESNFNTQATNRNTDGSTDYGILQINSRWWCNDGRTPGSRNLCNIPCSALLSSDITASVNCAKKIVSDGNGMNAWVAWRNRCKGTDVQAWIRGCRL

fitted diffusion coefficient of heme compared with that of the protein in myoglobin solution [1, 3]	noncovalent binding of heme to the protein [1, 3]	fitted diffusion coefficient of heme compared with that of the protein in myoglobin solution [1, 4]	noncovalent binding of heme to the protein [1, 4]	fitted diffusion coefficient of heme compared with that of the protein in myoglobin solution [1, 5]	noncovalent binding of heme to the protein [1, 5]	change in dispersion profile when the protein was added [2, 6]	noncovalent binding to lysozyme ([2]; without and with lysozyme)	Structure (SMILES)	change of apparent diffusion coefficient upon addition of the protein ([2]; absence vs presence of lysozyme, average of about ten measurements)
much larger diffusion coefficient	absent or extremely weak	agree closely with each other	noncovalently bound to the protein	almost identical	still bound to each other			C=CC1=C(C)c2cc3[n-]c(cc4[n-]c(cc5nc(cc1n2)C(C)=C5C=C)c(C)c4CCC(=O)O)c(CCC(=O)O)c3C.[Fe+2] [heme]	
						virtually no change		C[C@H](O)[C@H](O)[C@@H](O)[C@@H](O)C=O [rhamnose]	
						distinct change	binds noncovalently to lysozyme	CC(=O)N[C@H]1[C@H](O[C@H]2[C@H](O)[C@@H](NC(C)=O)C(O)O[C@@H]2CO)O[C@H](CO)[C@@H](O[C@@H]2O[C@H](CO)[C@@H](O)[C@H](O)[C@H]2NC(C)=O)[C@@H]1O (stereo partly shown) [chitotriose]	dramatic reduction; also recorded: significant change
